# Assays:
# CYP1A2 = assay: CYP inhibition evaluation in human liver microsomes, CYP1A2 (phenacetin); type: in vitro ADME; details: pH 7.4, probe substrate phenacetin
# Protocol: Incubations were performed in human liver microsomes using probe substrate concentrations similar to their corresponding Km values. Enzyme activity was evaluated in the presence of various concentrations of A-998679. The incubations consisted of the test article at varying concentrations (0–30 μM), probe substrate (concentration ~Km, see Table A2), human liver microsomal protein and 1 mM NADPH in 50 mM phosphate buffer at pH 7.4. Relative quantitation of the metabolites was obtained by LC-MS/MS using an ABSciex (Foster City, CA) API3000 or API4000 Qtrap hybrid linear ion trap mass spectrometer equipped with a TurboIonspray source using either PerkinElmer series 200 pumps or Agilent 1100 series pump with a Leap autosampler. Analytes were separated using a Phenomenex Prodigy ODS(3) 5 μm, 50 × 2.0 mm column at 50°C, eluted and detected under the specific conditions listed in Tables A3, A4, and A5. The analyte to internal standard peak area ratios were determined using Analyst 1.4 software (Applied Biosytems, Carlsbad, CA). The peak area ratios observed in the presence of test article were compared to the vehicle control in order to determine percent activity. To determine the IC50, the data were plotted as Log [dose] μM vs. % inhibition, and analyzed with a sigmoidal dose-response (variable slope) fitting equation. […]
# rat Cyp 2D2 = molecular target: T1, rat Cyp 2D2 (Rattus norvegicus, UniProt P10634); assay: Recombinant rat Cyp phenotype profiling, 2D2; type: in vitro ADME; details: 60 min
# T1 construct: purchased BD Gentest; host or cells: baculovirus infected insect cells
# T1 sequence (P10634 whole entry): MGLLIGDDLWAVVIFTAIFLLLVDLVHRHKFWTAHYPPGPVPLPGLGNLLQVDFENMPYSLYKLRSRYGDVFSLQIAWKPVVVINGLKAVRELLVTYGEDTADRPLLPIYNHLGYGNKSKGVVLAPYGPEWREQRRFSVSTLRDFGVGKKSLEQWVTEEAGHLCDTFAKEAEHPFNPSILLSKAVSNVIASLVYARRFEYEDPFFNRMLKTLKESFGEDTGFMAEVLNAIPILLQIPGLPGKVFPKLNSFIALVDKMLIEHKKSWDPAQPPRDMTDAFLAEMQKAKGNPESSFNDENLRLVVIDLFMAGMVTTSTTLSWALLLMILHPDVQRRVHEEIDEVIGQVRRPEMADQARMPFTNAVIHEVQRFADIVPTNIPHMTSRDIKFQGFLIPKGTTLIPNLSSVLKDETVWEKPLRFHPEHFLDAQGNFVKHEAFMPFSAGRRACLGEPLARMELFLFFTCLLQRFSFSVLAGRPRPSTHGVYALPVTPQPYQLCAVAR
# Protocol: (§1) Identification of the drug metabolizing enzymes (DMEs) of A-998679 was studied in cDNA expressed recombinant enzymes prepared from baculovirus infected insect cells over-expressing rat Cyp isoforms (BD Gentest, Woburn, MA) as listed in Table 2. Incubations were conducted in duplicate using Supersomes. The incubation mixture contained 100 pmol/ml of enzymes, except for Cyp1a1 (200 pmol/ml), 0.1 or 0.21 μM of [^3H]A-998679 in 100 mM phosphate buffer (pH 7.4). Reactions were initiated with the addition of NADPH at a final concentration of 1 mM and incubated at 37°C for 60 min. At the end of the incubation period, the incubations were terminated by the addition of acetonitrile/ethanol (50/50, v/v) solution. Insect control samples lacking expressed enzyme were used as negative control. The degree of metabolism of A-998679 was assessed by percent of parent remaining using the radio-HPLC method described below.
# (§2) Radiolabeled components from the above assays were profiled following separation by HPLC with on line radioflow detector. The system consisted of an Agilent 1100 Series quaternary pump and autosampler connected to a Packard 500TR flow scintillation detector. The data were processed using the Radiomatic™ Flo-one® software v3.65. The scintillant (Perkin Elmer FLO-SCINT™ III) flow was maintained at 3 ml/min. […]
# AhR gene battery = assay: Rat liver mRNA profiling of the AhR gene battery; type: in vivo; details: 5 days
# Protocol: All animal experiments were conducted in accordance with the Guiding Principles in the Use of Animals in Toxicology (http://www.toxicology.org/ai/air/air6.asp) and were approved by Abbott's Institutional Animal Care and Use Committee (IACUC). Male Sprague-Dawley rats [Crl:CD®(SD)IGS BR], weighing ~250 g at study initiation were obtained from Charles River Laboratories, Inc. (Wilmington, MA). Rats were housed singly in ventilated, stainless steel, wire-bottom hanging cages and fed non-certified Rodent Chow (Harlan Labs, Madison, WI), and water ad libitum and acclimated for at least 5 days after arrival. […] Serum clinical chemistry parameters were quantified using an Aeroset Clinical Chemistry Analyzer (Abbott Laboratories, Abbott Park, IL) and included alanine amino transferase (ALT), aspartate amino transferase (AST), gamma glutamyltransferase (GGT), and alkaline phosphatase (ALP) activities.
# Frozen liver or jejunum were immediately added to 4 ml of TRIzol reagent (Invitrogen Life Technologies) and homogenized using a Polytron 300D homogenizer (Brinkman Instruments, Westbury, NY). […] Nucleic acid concentration was determined by OD 260 nm (Smart-Spec, Bio-Rad Laboratories, Hercules, CA), and RNA integrity was evaluated using an Agilent 2100 bioanalyzer (Agilent Technologies, Foster City, CA). […]
# rat Cyp1a2 = molecular target: T2, rat Cyp1a2 (Rattus norvegicus, UniProt P04799); assay: Recombinant rat Cyp phenotype profiling, 1A2; type: in vitro ADME; details: 60 min
# T2 construct: purchased BD Gentest; host or cells: baculovirus infected insect cells
# T2 sequence (P04799 whole entry): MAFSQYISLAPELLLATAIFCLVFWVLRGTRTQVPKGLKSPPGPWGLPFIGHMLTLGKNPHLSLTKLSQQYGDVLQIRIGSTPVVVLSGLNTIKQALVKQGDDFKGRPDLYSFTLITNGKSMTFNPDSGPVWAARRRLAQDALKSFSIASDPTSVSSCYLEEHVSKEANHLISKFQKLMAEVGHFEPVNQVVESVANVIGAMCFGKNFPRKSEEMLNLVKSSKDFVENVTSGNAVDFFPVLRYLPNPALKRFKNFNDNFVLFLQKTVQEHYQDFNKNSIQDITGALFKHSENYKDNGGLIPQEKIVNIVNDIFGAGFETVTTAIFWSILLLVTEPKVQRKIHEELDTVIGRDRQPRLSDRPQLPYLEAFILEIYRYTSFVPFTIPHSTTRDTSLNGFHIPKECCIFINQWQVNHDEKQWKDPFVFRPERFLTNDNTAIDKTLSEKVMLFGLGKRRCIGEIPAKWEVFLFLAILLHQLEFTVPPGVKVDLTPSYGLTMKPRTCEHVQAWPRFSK
# Protocol: as §1, §2
smiles,measurement,setting,value
"N#Cc1cccc(-c2noc(-c3cccnc3)n2)c1 [A-998679, 3-(5-pyridin-3-yl-1,2,4-oxadiazol-3-yl) benzonitrile]",IC50,CYP1A2,460 nM
same,% parent remaining,"rat Cyp 2D2; recombinant rat Cyp 2D2, 0.10 μM",100%
same,% parent remaining,"rat Cyp 2D2; recombinant rat Cyp 2D2, 0.21 μM",98.1%
same,"expression of members of the AhR gene battery (Gst isoforms, Nqo1, Aldh, AhR) in rat liver",AhR gene battery,upregulated
same,% parent remaining,"rat Cyp1a2; recombinant rat Cyp 1A2, 0.10 μM",0%
same,% parent remaining,"rat Cyp1a2; recombinant rat Cyp 1A2, 0.21 μM",0%
